One assay deals with SF-1. The conditions noted are these: CV-1 cells; cited from earlier work.
The target of a further assay is T1, human SF-1 (Homo sapiens, UniProt Q13285).
T1 construct: For E. coli expression the SF-1 G219-T461 insert was cloned into a modified pET vector; made in house
Kind of assay: AlphaScreen coactivator (SRC-1/NCoA1) recruitment to His-tagged SF-1 LBD. The format is biochemical. The conditions noted are these: for dose-dependent NCoA1/SRC1 recruitment to SF-1: FIG. 7B, liposome-washed SF-1. From the text: However, the lipids binding SF-1 could be partially extracted by washing the proteins with liposomes prepared using phosphatidylcholine (C22 acyl chain length). It was reasoned that such liposomes with long acyl chains could act as a sink for extracted lipids, without binding the receptors themselves. After such washing the coactivator binding by SF-1 was diminished, but could be activated by the addition of phosphatidylethanolamine (FIG. 5A). The PE 16:0 16:1 observed in the crystal structure is unavailable commercially, so it could not be readily obtained. […] (Parks et al., Science, 1999, 284:1365-8; Makishima et al., Science, 1999, 284:1362-5.)
A variety of different methods for detecting molecular interactions can be used. For example, Alpha Screen technology (Perkin Elmer) is suitable to detect the interaction of the receptor with the coactivator fragment. In this case it is suitable to engineer the ligand-binding domain of the SF-1 and LRH-1 as an N-terminally HIS-tagged protein that can bind the acceptor bead (containing Nickel moieties that will bind the HIS tag). The coactivator fragment can be synthesized containing a biotin moiety that will bind the donor bead. In the presence of ‘activating’ compounds the association of the receptor with the co-regulator may be strengthened, whereas the presence of ‘inhibitory’ compounds may destabilize this interaction. Libraries of chemicals, or derivatives, can be quantified for their effects on co-regulator binding.
Thus, in an exemplary implementation, the Alpha Screen Histidine detection (Nickel chelate) kit (Perkin Elmer) is used to detect binding between His-tagged receptor LBD and biotinylated coactivator peptides or fragments. The assay is performed in Costar 384-well white polystyrene plates (Coming Inc.), in a total volume of 20 μL. Compounds to be tested for their abilities to modulate the interaction of nuclear receptor with coactivator are added to the 384-well plate in 1 μL of DMSO or buffer in advance of addition of the receptor and coactivator proteins.
Reactions are initiated in 15 μl containing 50 nM His-tagged nuclear receptor and […] biotin-tagged coactivator fragment, using buffer containing 50 mM Bis-tris HCl (pH 7.0), 50 mM KCl, 0.05% Tween 20, 1 mM DTT, 0.1% BSA. Other buffer variations can be tested to optimize the largest difference in signals obtained using the apo receptor and receptor bound to compounds already determined to bind and activate the receptor. After the protein solutions are added to the compounds, the plate is sealed and incubated at room temp for 2 hours. After incubation, a 5 μL mixture containing streptavidin donor beads (15 μg/ml) and Ni-chelate acceptor beads (15 μg/ml) are added from the Nickel chelate kit. Plates are resealed and incubated in the dark for 2 hours at room temperature and then read in an AlphaFusion reader set at a read time of 1 s/well.
A signal is produced by the binding of coactivator to nuclear receptor that can be detected by the AlphaFusion reader (the binding brings the acceptor beads into close proximity of the donor beads, which allows the acceptor beads to detect the singlet oxygens produced by the donor beads, causing them to emit a light detected by the instrument). Data analysis can be performed using GraphPad Prism (GraphPad Software, Inc.). […]
On the technique in general: Bead proximity is the source of the signal in Alpha formats.

In assay [1] the target is coactivator fragment (GST-coactivator fusion protein; the filing does not say which). The experiment in a line: co-expression in E. coli, metal affinity purification of His-tagged LRH-1.

The values that follow come from patent publication US20060160135A1, “SF-1 and LRH-1 modulator development” (priority 2004, published 2006).

T1 sequence (Q13285 219-461): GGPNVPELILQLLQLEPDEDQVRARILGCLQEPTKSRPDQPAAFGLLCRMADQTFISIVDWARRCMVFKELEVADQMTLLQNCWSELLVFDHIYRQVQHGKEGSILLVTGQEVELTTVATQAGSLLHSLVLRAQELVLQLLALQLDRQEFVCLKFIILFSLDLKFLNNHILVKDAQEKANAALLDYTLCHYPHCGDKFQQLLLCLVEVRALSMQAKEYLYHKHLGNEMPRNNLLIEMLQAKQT
T1 sequence (Q15788 595-780 partner limits assumed): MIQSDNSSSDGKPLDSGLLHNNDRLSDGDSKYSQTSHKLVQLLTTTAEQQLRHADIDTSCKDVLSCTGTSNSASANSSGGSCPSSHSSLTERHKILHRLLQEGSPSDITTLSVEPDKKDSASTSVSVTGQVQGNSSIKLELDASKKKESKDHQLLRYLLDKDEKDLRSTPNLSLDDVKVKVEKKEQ

As to `C[C@H](CCCC(C)(C)O)[C@H]1CC[C@H]2[C@@H]3CC=C4C[C@@H](O)CC[C@]4(C)[C@H]3CC[C@]12C` [25-hydroxycholesterol], the SF-1-dependent transcriptional activity entry in the assay with SF-1 is listed as “modest increase”.

With `C[C@@H](CO)CCC[C@@H](C)[C@H]1CC[C@H]2[C@@H]3CC=C4C[C@@H](O)CC[C@]4(C)[C@H]3CC[C@]12C` [26-hydroxycholesterol], the SF-1-dependent transcriptional activity entry in the assay on SF-1 is reported as “modest increase”.

`C[C@@H](CO)CCC[C@@H](C)[C@H]1CC[C@H]2[C@@H]3CC=C4C[C@@H](O)CC[C@]4(C)[C@H]3CC[C@]12C` [27-hydroxycholesterol]: in the assay on SF-1, the SF-1-dependent transcriptional activity entry is “modest increase”.

For `CC/C=C\C/C=C\C/C=C\CCCCCCCC(=O)OC[C@H](COP(=O)(O)OCCN)OC(=O)CCCCCCC/C=C\C/C=C\C/C=C\CC` [PE-18:3, 1,2-dilinolenoyl-sn-glycero-3-phosphoethanolamine], the “activation of wild-type SF-1 to bind NCoA1 as measured by AlphaScreen” value on human SF-1 (50 μM compound, FIG. 7A) is listed as “activates”. Moreover, the “dose-dependent NCoA1/SRC1 recruitment to SF-1” value on human SF-1 is given as “Dose-dependent”; at human SF-1 (listed as PE 18:3 18:3), “dose-dependent increase”. At human SF-1 (SF-1 protein washed with phosphatidylcholine liposomes, biotinylated GST-SRC-1 fragment), this compound gave an EC50 of 30 µM.

With “His-tagged human LRH-1 LBD (S251-A495) E488K (from UniProt O00482-2) (receptor)”, the decrease in coactivator fragment binding compared to the LRH-1-WT protein in assay [1] is 70%.

Turning to phosphatidylethanolamine, at human SF-1 (SF-1 washed with phosphatidylcholine liposomes, then lipid added), the “coactivator binding by SF-1 after liposome washing” value was “activated”.

The EC50 is the concentration at which the effect is half-maximal.
